According to PMC8596301 (Frontiers in Pharmacology, 2021):

Legend:
δOR KO mice = experiment: Two-bottle choice alcohol paradigm (drinking in the dark, 10% ethanol vs. water); type: in vivo, mouse; details: paynantheine 10 mg∙kg^−1; male δOR KO mice
Procedure: Mice were subject to drinking in the dark (DID), limited access (4 h per day), two-bottle choice (10% ethanol vs. water) paradigm in which they were trained to consume alcohol voluntarily as previously described ([Rhodes et al., 2005]; [van Rijn and Whistler, 2009]). Mice reached stable alcohol consumption within 3 weeks of training, and after the third week, drug injections were administered prior to the daily drinking session on Friday. Drug’s effect on alcohol consumption was measured as the change in Friday’s alcohol intake minus the average alcohol intake from the preceding Tuesday–Thursday of that week (g∙kg^−1). A summary of all statistical analyses for the drinking data can be found in Supplemental Tables S6–S9. In brief, results from two-bottle choice alcohol consumption paradigms were assessed for statistical significance using RM two-way ANOVA for main effects of drug dose, treatment day, and drug dose × treatment day; Sidak’s multiple comparisons (MC) between alcohol consumption baseline (Tuesday–Thursday average) vs. treatment day consumption (Friday) were then used as the post hoc test for each drug dose tested. The same RM two-way ANOVA and Sidak’s MC post hoc analyses were used for water consumption and ethanol preference data. […] Sex differences between baseline data were evaluated using RM two-way ANOVA for main effects of sex, treatment baseline, and sex × treatment baseline; Sidak’s multiple comparisons (MC) between male and female mice were then used as the post hoc test for each treatment week tested.

C57Bl/6 male mice [1] = experiment: Locomotor evaluation (ambulation); details: 10 and 30 mg∙kg^−1 i.p.; data from CPP conditioning sessions
FLAG-mouse κOR = target: T1, FLAG-mouse κOR (Mus musculus, UniProt P33534); set-up: method as in Gutridge et al., 2020; details: cited from earlier work
T1 construct: expressed in transfected cells; host or cells: HEK cells (HEK-293), transient, co-transfected with pGloSensor22F
T1 sequence (P33534 whole entry): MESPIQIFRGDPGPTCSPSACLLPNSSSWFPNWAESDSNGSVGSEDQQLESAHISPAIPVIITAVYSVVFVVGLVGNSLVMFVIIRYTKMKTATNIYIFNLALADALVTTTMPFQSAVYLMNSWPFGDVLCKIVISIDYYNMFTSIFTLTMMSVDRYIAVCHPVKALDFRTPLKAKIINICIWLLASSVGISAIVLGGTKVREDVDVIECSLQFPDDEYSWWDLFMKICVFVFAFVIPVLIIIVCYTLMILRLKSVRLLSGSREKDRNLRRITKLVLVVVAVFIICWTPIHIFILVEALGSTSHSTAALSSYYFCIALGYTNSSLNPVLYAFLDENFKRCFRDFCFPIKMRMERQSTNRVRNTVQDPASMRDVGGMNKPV

C57Bl/6 male mice [2] = experiment: Brief and extended conditioned place preference paradigms; type: in vivo, mouse
Description: Mice were conditioned to drugs and vehicle as described previously in two-chamber conditioned place preference (CPP) boxes in a counterbalanced, unbiased approach for either two drug conditioning sessions over 2 days (brief) or four drug conditioning sessions over 8 days (extended) ([Váradi et al., 2015]; [Gutridge et al., 2020]). For brief and extended conditioned place preference experiments, separate groups of mice were used for each drug dose. A summary of all statistical analyses for the CPP data can be found in Supplemental Table S4. In brief, all CPP data were analyzed with two-tailed, paired t tests comparing time spent on the drug-paired side pre- and post-conditioning.

HA-mouse µOR = target: T2, HA-mouse µOR (Mus musculus, UniProt P42866); details: cited from earlier work
T2 construct: expressed in transfected cells; host or cells: HEK cells (HEK-293), transient, co-transfected with pGloSensor22F
T2 sequence (P42866 whole entry): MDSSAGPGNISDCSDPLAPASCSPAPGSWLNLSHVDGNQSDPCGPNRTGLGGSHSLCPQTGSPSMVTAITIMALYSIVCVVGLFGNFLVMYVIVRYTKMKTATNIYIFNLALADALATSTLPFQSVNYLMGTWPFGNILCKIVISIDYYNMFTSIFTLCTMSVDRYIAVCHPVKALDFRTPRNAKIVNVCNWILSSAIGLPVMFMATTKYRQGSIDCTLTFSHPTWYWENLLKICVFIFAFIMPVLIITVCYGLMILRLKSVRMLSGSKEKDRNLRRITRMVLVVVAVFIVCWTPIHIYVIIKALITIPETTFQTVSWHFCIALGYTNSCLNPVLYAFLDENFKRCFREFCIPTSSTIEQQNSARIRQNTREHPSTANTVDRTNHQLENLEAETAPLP

κOR = κOR (Homo sapiens, UniProt P41145); experiment: biochemical; type: binding
Sequence of κOR (P41145 whole entry): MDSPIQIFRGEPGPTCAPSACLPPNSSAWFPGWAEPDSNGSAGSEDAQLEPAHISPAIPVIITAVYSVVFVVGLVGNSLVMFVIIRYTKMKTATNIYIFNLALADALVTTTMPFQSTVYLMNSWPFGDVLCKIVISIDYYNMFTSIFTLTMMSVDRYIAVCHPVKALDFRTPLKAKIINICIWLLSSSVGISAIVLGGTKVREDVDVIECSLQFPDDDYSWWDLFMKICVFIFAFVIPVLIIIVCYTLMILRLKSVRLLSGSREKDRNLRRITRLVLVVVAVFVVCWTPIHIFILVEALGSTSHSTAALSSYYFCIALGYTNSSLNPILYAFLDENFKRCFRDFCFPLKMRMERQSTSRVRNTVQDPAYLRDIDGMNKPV

μOR = μOR (Homo sapiens, UniProt P35372); experiment: biochemical; type: binding
Sequence of μOR (P35372 whole entry): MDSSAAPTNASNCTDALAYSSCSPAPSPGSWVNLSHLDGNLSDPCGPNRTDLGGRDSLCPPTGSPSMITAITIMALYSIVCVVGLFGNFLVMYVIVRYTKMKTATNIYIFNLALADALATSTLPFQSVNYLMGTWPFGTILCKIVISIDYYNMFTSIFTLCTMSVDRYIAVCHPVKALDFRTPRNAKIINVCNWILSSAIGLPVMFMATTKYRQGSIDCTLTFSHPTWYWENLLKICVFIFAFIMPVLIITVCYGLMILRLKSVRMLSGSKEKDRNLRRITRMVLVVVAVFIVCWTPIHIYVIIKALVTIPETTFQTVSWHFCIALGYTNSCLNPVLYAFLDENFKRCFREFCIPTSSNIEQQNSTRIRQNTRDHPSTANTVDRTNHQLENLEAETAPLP

FLAG-mouse δOR = target: T3, FLAG-mouse δOR (Mus musculus, UniProt P32300); set-up: method as in Gutridge et al., 2020; details: cited from earlier work
T3 construct: expressed in transfected cells; host or cells: HEK cells (HEK-293), transient, co-transfected with pGloSensor22F
T3 sequence (P32300 whole entry): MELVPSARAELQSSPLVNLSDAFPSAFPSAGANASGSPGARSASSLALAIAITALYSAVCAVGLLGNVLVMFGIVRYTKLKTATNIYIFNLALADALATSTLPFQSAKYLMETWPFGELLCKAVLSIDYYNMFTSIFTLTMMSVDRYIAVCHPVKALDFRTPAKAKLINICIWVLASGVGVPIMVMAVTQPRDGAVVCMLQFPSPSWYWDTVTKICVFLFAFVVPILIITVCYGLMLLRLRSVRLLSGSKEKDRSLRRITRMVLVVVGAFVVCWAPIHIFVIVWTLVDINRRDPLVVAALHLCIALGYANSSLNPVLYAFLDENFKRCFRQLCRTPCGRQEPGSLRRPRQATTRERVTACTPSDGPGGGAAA

human ORs = test system: human ORs; set-up: method as in Kruegel et al., 2016; details: ref Kruegel et al., 2016; cited from earlier work
C57Bl/6 male mice [3] = details: ref Gutridge et al., 2020; cited from earlier work
WT and δOR KO mice = experiment: Seizure assay (modified Racine scale); type: in vivo, mouse; details: 30 mg∙kg^−1 i.p.; wild type and δOR KO mice
Procedure: To assess drug-induced seizurogenic activity, mice were placed in a clear plastic cylinder (25 cm diameter, 35 cm height) immediately following drug injection and their activity was recorded in a well-lit, quiet room using iSpy camera software (iSpyConnect.com). A recording time of 90 min was chosen for the tested compounds based on previous observations of seizures time lengths in experiments with 30 mg∙kg^−1 paynantheine. If animals were not presenting with seizure activity after 30 min, the recording time was shortened accordingly. Seizure severity was scored based on the modified Racine scale (half-scores allowed) in bins of 3–5 min. Onset to first seizure symptom, onset to highest Racine score, and highest Racine score were also assessed. A summary of all statistical analyses for the seizure data can be found in Supplemental Table S3. In brief, seizure-like behavior between wild type and δOR KO mice was compared with a two-tailed, unpaired t test with Welch’s correction on area under the curve data generated from graphing the highest Racine score per time bin over 90 min for each mouse.

[4] = set-up: method as in Kamble et al., 2021; details: rats; oral; 1.1 mg∙kg^−1; ref Kamble et al., 2021; cited from earlier work
C57Bl/6 male mice [5] = experiment: Tail flick thermal nociception assay; type: in vivo, mouse; details: for Block of morphine analgesia: morphine 6 mg∙kg^−1 s.c.
wild-type C57Bl/6 mice = details: 10 and 30 mg∙kg^−1; male mice; ref Gutridge et al., 2020; cited from earlier work
[6] = ref Gutridge et al., 2020, read-out: cAMP IC50

Q: For `C=C[C@H]1CN2CCc3c([nH]c4cccc(OC)c34)[C@@H]2C[C@@H]1/C(=C\OC)C(=O)OC` [PAYN, paynantheine], which Alcohol consumption (δOR KO mice) is on record?
A: The Alcohol consumption was “decreases alcohol consumption in δOR KO mice”.

Q: And the “Effect on hyperlocomotion induced by 6 mg∙kg^−1 morphine” value (C57Bl/6 male mice [1])?
A: The value was “dose-dependently attenuated hyperlocomotion”.

Q: And the “cAMP α” value (FLAG-mouse κOR; normalized to U50,488, ref Gutridge et al., 2020)?
A: The value was 95 ± 5.

Q: What about the IC50 (FLAG-mouse κOR; [6]) of the same compound?
A: The IC50 was 7.43 µM.

Q: What about the “Conditioned place preference, extended CPP paradigm” value (C57Bl/6 male mice [2]; 10 mg∙kg^−1 i.p., four drug conditioning sessions, male mice) of the same compound?
A: The value was “did not produce CPP nor CPA”.

Q: And the “Conditioned place preference, brief CPP paradigm” value (C57Bl/6 male mice [2]; 10 mg∙kg^−1 i.p., two drug conditioning sessions, male mice)?
A: The value was “modest conditioned place aversion”.

Q: What about the “Block of morphine CPP” value (C57Bl/6 male mice [2]; 10 and 30 mg∙kg^−1 i.p. pretreatment, morphine 6 mg∙kg^−1, brief CPP) of the same compound?
A: The value was “neither dose blocks morphine CPP”.

Q: And the “cAMP pIC50” value (HA-mouse µOR)?
A: The value was 5.4 ± 0.1.

Q: And the “cAMP α” value (HA-mouse µOR)?
A: Its value is 100 ± 0.

Q: And the IC50 (HA-mouse µOR; read-out: cAMP IC50)?
A: The IC50 was 4.08 µM.

Q: What about the Ki (κOR; Binding Ki (µM)) of the same compound?
A: The Ki was 4 µM.

Q: What about the Ki (κOR; Binding pKi) of the same compound?
A: The Ki was 3.16 µM.

Q: What about the Ki (μOR) of the same compound?
A: Its Ki is 0.52 µM.

Q: And the “cAMP α” value (FLAG-mouse δOR; normalized to Leu-enkephalin, ref Gutridge et al., 2020)?
A: Its value is 64 ± 13.

Q: What about the IC50 (FLAG-mouse δOR; [6]) of the same compound?
A: Its IC50 is 3.55 µM.

Q: What about the “cAMP pIC50” value (FLAG-mouse δOR; ref Gutridge et al., 2020) of the same compound?
A: The value was 5.6 ± 0.2.

Q: What about the “Functional activity at human ORs” value (human ORs) of the same compound?
A: Its value is “weak antagonist”.

Q: And the “Hyperlocomotion at effective dose” value (C57Bl/6 male mice [3])?
A: The value was “does not produce hyperlocomotion”.

Q: And the “Convulsive behaviors, Racine level” value (WT and δOR KO mice)?
A: The value was 1–2.

Q: And the “Detectability in plasma over time” value [4]?
A: Its value is “undetectable after an hour”.

Q: What about the Tmax in plasma [4] of the same compound?
A: The Tmax in plasma was 10 min.

Q: And the “Block of morphine analgesia” value (C57Bl/6 male mice [5]; 10 mg∙kg^−1 i.p.)?
A: The value was “does not block morphine analgesia”.

Q: What about the “Block of morphine analgesia” value (C57Bl/6 male mice [5]; 30 mg∙kg^−1 i.p.) of the same compound?
A: Its value is “blocks morphine analgesia”.

Q: And the “Block of antinociception produced by 6 mg∙kg^−1 morphine” value (C57Bl/6 male mice [5]; 10 and 30 mg∙kg^−1 i.p., 10 min before morphine s.c.)?
A: The value was “dose-dependently blocked antinociception”.

Q: And the “Antinociceptive effect (agonist mode, %MPE)” value (C57Bl/6 male mice [5]; 10 and 30 mg∙kg^−1 i.p., 30 min)?
A: The value was “neither the 10 nor 30 mg∙kg^−1 dose displayed meaningful antinociceptive effects”.

Q: What about the Alcohol intake (wild-type C57Bl/6 mice) of the same compound?
A: The Alcohol intake was “dose-dependently decreases alcohol intake”.
